Data on 3 compounds can be found in ChEMBL document CHEMBL3992534, “Design, Synthesis, and Biological Evaluation of Novel, Non-Brain-Penetrant, Hybrid Cannabinoid CB1R Inverse Agonist/Inducible Nitric Oxide Synthase (iNOS) Inhibitors for the Treatment of Liver Fibrosis” (J Med Chem, 2017).

By Tmax is commonly meant the time from dosing to the highest level. Broadly, the half-life is the time in which the quantity being followed falls by half. Higher therefore signals slow loss. Usually bioavailability stands for dose-corrected exposure relative to a reference, in per cent. A low value points to little systemic uptake.

In data set [1] the test system is Mus musculus. In words: Antifibrotic activity in CCl4-induced C57Bl6/J mouse liver fibrosis model assessed as reduction in liver fibrosis at 10 mg/kg administered via oral gavage for 4 weeks by picrosirius red staining based histological analysis. Format: functional, organism-based.
Data set [2] has as its system Mus musculus. Put plainly: Antifibrotic activity in CCl4-induced C57Bl6/J mouse liver fibrosis model assessed as reduction in iNOS level at 10 mg/kg administered via oral gavage for 4 weeks by immunostaining based method. Format: functional, organism-based.
In data set [3] the target is T1, Nitric oxide synthase, inducible (Mus musculus) (UniProt P29477).
T1 sequence (whole entry): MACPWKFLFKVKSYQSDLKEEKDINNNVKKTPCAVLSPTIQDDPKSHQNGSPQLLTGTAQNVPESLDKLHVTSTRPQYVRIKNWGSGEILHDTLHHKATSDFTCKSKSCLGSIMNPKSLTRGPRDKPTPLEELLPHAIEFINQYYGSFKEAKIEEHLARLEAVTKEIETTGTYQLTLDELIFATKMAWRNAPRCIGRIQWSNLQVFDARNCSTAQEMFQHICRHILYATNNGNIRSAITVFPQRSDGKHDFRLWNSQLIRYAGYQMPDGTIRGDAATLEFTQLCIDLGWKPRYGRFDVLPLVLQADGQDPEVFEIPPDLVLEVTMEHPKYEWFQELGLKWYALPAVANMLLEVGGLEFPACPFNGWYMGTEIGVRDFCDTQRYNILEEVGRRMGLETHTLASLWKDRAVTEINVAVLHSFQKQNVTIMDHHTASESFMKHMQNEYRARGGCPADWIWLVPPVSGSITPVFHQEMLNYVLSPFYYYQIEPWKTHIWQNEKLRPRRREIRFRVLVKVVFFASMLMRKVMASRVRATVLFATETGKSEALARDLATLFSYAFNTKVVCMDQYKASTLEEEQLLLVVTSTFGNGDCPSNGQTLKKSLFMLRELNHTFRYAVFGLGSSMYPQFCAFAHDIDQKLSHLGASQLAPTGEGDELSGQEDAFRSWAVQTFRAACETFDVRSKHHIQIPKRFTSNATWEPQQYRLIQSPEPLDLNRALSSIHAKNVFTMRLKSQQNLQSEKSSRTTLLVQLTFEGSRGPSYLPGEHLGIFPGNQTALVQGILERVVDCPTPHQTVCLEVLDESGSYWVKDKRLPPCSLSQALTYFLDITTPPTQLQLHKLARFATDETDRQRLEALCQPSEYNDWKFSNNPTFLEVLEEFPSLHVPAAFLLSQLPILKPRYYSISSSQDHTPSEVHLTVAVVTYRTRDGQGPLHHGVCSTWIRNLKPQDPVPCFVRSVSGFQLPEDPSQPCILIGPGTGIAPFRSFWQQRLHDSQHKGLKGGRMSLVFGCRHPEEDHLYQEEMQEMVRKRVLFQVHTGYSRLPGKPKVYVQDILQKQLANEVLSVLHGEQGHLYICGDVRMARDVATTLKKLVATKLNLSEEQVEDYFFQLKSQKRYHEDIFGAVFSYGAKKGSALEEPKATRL
Put plainly: Inhibition of iNOS in mouse RAW264.7 cells assessed as LPS-induced NO production measured after 1 hr by fluorimetric assay. Format: cell-based.

In data set [4] the target is T1, Nitric oxide synthase, inducible (Mus musculus). Put plainly: Inhibition of iNOS in mouse RAW264.7 cells assessed as interferon gamma-induced NO production measured after 1 hr by fluorimetric assay. Format: cell-based.
The test system of data set [5] is Mus musculus. In words: In vivo antagonist activity at CB1R in C57Bl6/J mouse assessed as induction of anxiogenic behavior at 10 mg/kg administered once daily via oral gavage for 28 days by elevated plus maze test. Format: functional, organism-based.
The test system of data set [6] is Mus musculus. In words: Antifibrotic activity in CCl4-induced C57Bl6/J mouse liver fibrosis model assessed as reduction in liver fibrosis at 3 mg/kg administered via oral gavage for 4 weeks by picrosirius red staining based histological analysis. Format: functional, organism-based.
Data set [7] deals with Mus musculus. Put plainly: Antifibrotic activity in BDL-induced wild-type C57Bl6/J mouse liver damage model assessed as reduction in collagen deposition in liver at 30 mg/kg administered once daily via oral gavage by picrosirius staining based histological analysis. Format: functional, organism-based.
Data set [8] relates to Mus musculus. Put plainly: Antifibrotic activity in BDL-induced CB1R deficient C57Bl6/J mouse liver damage model assessed as reduction in collagen deposition in liver at 3 mg/kg administered once daily via oral gavage by picrosirius red staining based histological analysis. Format: functional, organism-based.
In data set [9] the test system is Mus musculus. In words: Antifibrotic activity in BDL-induced wild-type C57Bl6/J mouse liver damage model assessed as reduction in liver fibrosis at 3 mg/kg administered once daily via oral gavage starting on day 6 post-BDL induction by picrosirius red staining based histological analysis. Format: functional, organism-based.
Data set [10] has as its system Mus musculus. In words: Antifibrotic activity in CCl4-induced C57Bl6/J mouse liver fibrosis model assessed as reduction in iNOS level at 3 mg/kg administered via oral gavage for 4 weeks by immunostaining based method. Format: functional, organism-based.
Data set [11] deals with Mus musculus. In words: In vivo antagonist activity at CB1R in C57Bl6/J mouse assessed as reversal of ACEA-induced reduction in upper gastrointestinal motility administered via oral gavage administered 30 mins prior to ACEA addition. Format: functional, organism-based.
Data set [12] relates to Brain. In words: Drug level in C57Bl6/J mouse brain at 10 mg/kg, po administered via gavage measured after 1 hr by LC-MS/MS analysis. Format: ADME, organism-based. The note with it: in vivo.
In data set [13] the test system is Brain. Put plainly: Drug level in C57Bl6/J mouse brain at 10 mg/kg, po administered via gavage measured after 28 days by LC-MS/MS analysis. Particulars: in vivo, 672 h. Format: ADME, organism-based.
Data set [14] relates to Liver. In words: Drug uptake in C57Bl6/J mouse liver at 10 mg/kg, po administered via gavage measured after 28 days by LC-MS/MS analysis. Format: ADME, organism-based. The note with it: in vivo, 672 h.
Data set [15] deals with Liver. Put plainly: Drug uptake in C57Bl6/J mouse liver at 10 mg/kg, po administered via gavage measured after 1 hr by LC-MS/MS analysis. Format: ADME, organism-based. Particulars: in vivo.
Data set [16] is described as follows: Ratio of drug level in brain to plasma in C57Bl6/J mouse at 10 mg/kg, po administered via gavage measured after 1 hr by LC-MS/MS analysis. Format: ADME, organism-based.
A short description of data set [17]: Ratio of drug level in brain to plasma in C57Bl6/J mouse at 10 mg/kg, po administered via gavage measured after 28 days by LC-MS/MS analysis. Format: ADME, organism-based. The note with it: brain and plasma, read-out: BPR.
For data set [18], the system named is Mus musculus. Put plainly: Antiobesity activity in diet-induced obesity C57Bl6/J mouse model assessed as reduction in body weight administered once daily via oral gavage for 2 weeks. Format: functional.
Data set [19] concerns Mus musculus. In words: Antiobesity activity in diet-induced obesity C57Bl6/J mouse model assessed as reduction in hepatic steatosis by measuring hepatic triglyceride level administered once daily via oral gavage for 2 weeks. Format: functional.
The subject of data set [20] is Mus musculus. In words: Antiobesity activity in diet-induced obesity C57Bl6/J mouse model assessed as reduction in food intake administered once daily via oral gavage for 2 weeks. Format: functional.
For data set [21], the system named is Mus musculus. In words: Antiobesity activity in diet-induced obesity C57Bl6/J mouse model assessed as improvement in glucose tolerance administered once daily via oral gavage for 2 weeks measured at post last dose by ipGTT. Format: functional.
Data set [22] has as its system Salmonella typhimurium. In words: Mutagenicity in Salmonella typhimurium TA98 up to 125 ug/ml by Ames test. Format: toxicity. Particulars: salmonella enterica subsp. enterica serovar typhimurium. For orientation: In the Ames test, an excess of revertant colonies over the control signals mutagenicity.
The nature of data set [23]: Tmax in mouse at 10 mg/kg, po. Format: ADME, organism-based. The note with it: in vivo.
The nature of data set [24]: Half life in mouse at 10 mg/kg, po. Format: ADME, organism-based. The note with it: in vivo.
The nature of data set [25]: Tmax in Sprague-Dawley rat at 10 mg/kg, po. Format: ADME, organism-based. Particulars: in vivo.
Data set [26] is described as follows: Half life in Sprague-Dawley rat at 10 mg/kg, po. Particulars: in vivo. Format: ADME, organism-based.
Data set [27] is described as follows: Oral bioavailability in Sprague-Dawley rat at 10 mg/kg. Format: ADME, organism-based. Particulars: in vivo.
Data set [28] has as its system Mus musculus. Put plainly: Antifibrotic activity in BDL-induced wild-type C57Bl6/J mouse liver damage model assessed as reduction in collagen deposition in liver at 10 mg/kg administered once daily via oral gavage by picrosirius staining based histological analysis. Format: functional, organism-based.
Data set [29] relates to Mus musculus. In words: Antifibrotic activity in BDL-induced CB1R deficient C57Bl6/J mouse liver damage model assessed as reduction in collagen deposition in liver at 10 mg/kg administered once daily via oral gavage by picrosirius staining based histological analysis. Format: functional, organism-based.
Data set [30] deals with Mus musculus. Put plainly: Antifibrotic activity in BDL-induced wild-type C57Bl6/J mouse liver damage model assessed as reduction in liver fibrosis at 10 mg/kg administered once daily via oral gavage starting on day 6 post-BDL induction by picrosirius red staining based histological analysis. Format: functional, organism-based.
Data set [31] concerns Salmonella typhimurium. Put plainly: Mutagenicity in Salmonella typhimurium TA100 up to 125 ug/ml by Ames test. Format: toxicity. Particulars: salmonella enterica subsp. enterica serovar typhimurium.

Calls of active or inactive are those of the source. The rule behind the calls is not given here.

Consider `C/C(N)=N\C(=N/S(=O)(=O)c1ccc(Cl)cc1)N1C[C@@H](c2ccccc2)C(c2ccc(Cl)cc2)=N1`, for which the result with Mus musculus [1] and in the data set on Mus musculus [2] was Active. In addition, the inhibition result in data set [3] and in data set [4] was “Active” in each case.
With `Cc1c(C(=O)NN2CCCCC2)nn(-c2ccc(Cl)cc2Cl)c1-c1ccc(Cl)cc1`, the result in the data set on Mus musculus [5], in the data set with Mus musculus [6] and in the data set on Mus musculus [7] was Active. For the same compound, the outcome in the data set with Mus musculus [8], in the data set on Mus musculus [9] and in the data set on Mus musculus [10] was inactive.
For the compound `C/C(N)=N\C(=N/S(=O)(=O)c1ccc(Cl)cc1)N1C[C@H](c2ccccc2)C(c2ccc(Cl)cc2)=N1`, the Activity result in the data set on Mus musculus [11] is “Dose-dependent effect”; in the data set with Mus musculus [18] it was “Dose-dependent effect”; with Mus musculus [19] it was “Dose-dependent effect”; in the data set with Mus musculus [20] it was “Dose-dependent effect”; in the data set with Mus musculus [21], “Dose-dependent effect”; in the data set on Salmonella typhimurium [22], “Non-Toxic”. The Activity entry in the data set on Salmonella typhimurium [31] is reported as “Non-Toxic”. The Drug uptake was below 3% in the data set on Brain [12], below 3% in the data set on Brain [13], “Active” in the data set on Liver [14] and “Active” in the data set on Liver [15]. For the same compound, the outcome in the data set with Mus musculus [1], in the data set on Mus musculus [2], with Mus musculus [28], in the data set with Mus musculus [29] and in the data set with Mus musculus [30] was Active. The BPR in data set [16] came out at 2.7%. Further, the Kp at 672 h in data set [17] worked out at 0.03. The result in the data set with Mus musculus [5] was inactive. Moreover, the figures for the Tmax in [23] and in data set [25] were 1 h and 0.75 h, respectively. Also, the half-life in data set [24] and in data set [26] was 2 h in each case. The bioavailability in data set [27] was determined as 55%.
